Data: article PMC4754833, “Rilpivirine analogs potently inhibit drug-resistant HIV-1 mutants” (Retrovirology, 2016)
Like-named read-outs stand apart in the source and are kept apart here.

Experiments:
WT HIV-1 [1] = test: single round infection luciferase assay, WT HIV-1; assay type: cell-based; settings: Human immunodeficiency virus 1
Protocol: (§1) The human osteosarcoma cell line, HOS, was obtained from Dr. Richard Schwartz (Michigan State University, East Lansing, MI) and grown in Dulbecco’s modified Eagle’s medium (Invitrogen, Carlsbad, CA) supplemented with 5 % (v/v) fetal bovine serum, 5 % newborn calf serum, and penicillin (50 units/ml) plus streptomycin (50 µg/ml; Quality Biological, Gaithersburg, MD). Virion production and single-round infectivity assays were used to determine antiviral activity (IC50 values) of the compounds as previously described.
(§2) pNLNgoMIVR-ΔEnv.LUC has been described previously. The RT open reading frame was removed from pNLNgoMIVR-ΔEnv.LUC (digestion with SpeI and SalI) and inserted between the SpeI and SalI sites of pBluescript II KS+. Using that construct as the wild-type template, we prepared the following HIV-1 RT mutants using the QuikChange II XL (Stratagene, La Jolla, CA) site-directed mutagenesis protocol kit: L100I, K103N, Y181C, Y188L, H221Y, K103N/Y181C, G190A, G190S, M230L, P236L, L100I/K103N, K103N/P225H, V106A/G190A/F227L, V106A, L234I, V106A/F227L, V106A/L234I, V106A/F227L/L234I, E40K, D67E, K101E, V111A, E138K, M184I, M184V, K101E/M184I, K101E/M184V, E138K/M184I, E138K/M184V, K101P, Y181I, and K101P/V179I. The following sense oligonucleotides were used with matching cognate antisense oligonucleotides (not shown) (Integrated DNA Technologies, Coralville, IA) in the mutagenesis: L100I, 5′-[…]-3′; L100I 2-103, 5′-[…]-3′; K103N, 5′-[…]-3′; Y181C, 5′-[…]-3′; Y188L, 5′-[…]-3′; H221Y, 5′-[…]-3′; G190A, 5′-[…]-3′; G190S, 5′-[…]-3′; P225H, 5′-[…]-3′; F227, 5′-[…]-3′; M230L, 5′-[…]-3′; P236L, 5′-[…]-3′; V106A, 5′-[…]-3′; L234I, 5′-[…]-3′; E40K, 5′-[…]-3′; D67E, 5′-[…]-3′; K101E, 5′-[…]-3′; V111A, 5′-[…]-3′; E138K, 5′-[…]-3′; M184I, 5′-[…]-3′; M184V, 5′-[…]-3′; K101P, 5′-[…]-3′; Y181I, 5′-[…]-3′; K101P/V179I, 5′-[…]-3′. The double mutants K103N/Y181C, K103N/P225H, and L100I/K103N were made using the previously generated K103N mutant and the appropriate oligonucleotides to add the second mutation, Y181C, P225, and L100I respectively. The double mutants V106A/F227L and V106A/L234I were prepared using the previously generated V106A mutant and the appropriate oligonucleotides to add the second mutation, F227L and L234I, respectively. The double mutants K101E/M184I and K101E/M184V were constructed using the previously generated K101E mutant and the appropriate oligonucleotides to add the second mutation, M184I and M184V, respectively. The double mutants E138K/M184I and E138K/M184V were constructed using the previously generated E138K mutant and the appropriate oligonucleotides for the second mutation, M184I and M184V, respectively. The triple mutant V106A/F227L/L234I was made using the previously generated V106A/F227L double mutant and the appropriate oligonucleotides for the third mutation, L234I. The triple mutant V106A/G190A/F227L was constructed in a series of steps using the previously generated V106A mutant and the appropriate oligonucleotides for the second mutation, G190A, to generate the double mutant V106A/G190A, and then the triple mutant was made using double mutant V106A/G190A and oligonucleotides for the third mutation, F227L. The DNA sequence of each construct was verified by DNA sequence determination. The sequences encoding the mutant RTs were then subcloned into pNLNgoMIVR-ΔEnv.LUC (between the KpnI and SalI sites) to produce the mutant HIV-1 constructs. These DNA sequences were also checked independently by DNA sequence determination.
(§3) 10.1186/s12977-016-0244-2 The IC50 values (nM) of RPV and the RPV analogs were determined against the NNRTI resistant mutants were measured by using a single round infection assay, n = 4. The concentrations (nM) are measured by reductions in luciferase reporter activity followed by the standard deviations. […]

HIV-1 RT mutant G190S = test: single round infection assay, G190S; assay type: cell-based; settings: Human immunodeficiency virus 1
Protocol: as §1, §2, §3

[2] = test system: HIV-1 RT mutant L100I/K103N; test: single round infection assay, L100I/K103N; assay type: cell-based; settings: L100I/K103N vs WT
Protocol: as §1, §2, §3

[3] = test system: HIV-1 RT mutant V106A/F227L; test: single round infection assay, V106A/F227L; assay type: cell-based; settings: V106A/F227L vs WT
Protocol: as §1, §2, §3

HIV-1 RT mutant D67E = test: single round infection assay, D67E; assay type: cell-based; settings: for fold-change of IC50 of the mutant relative to WT: D67E vs WT; for IC50: ± SD, n=4
Protocol: as §1, §2, §3

[4] = test system: HIV-1 RT mutant K101E/M184I; test: single round infection assay, K101E/M184I; assay type: cell-based; settings: K101E/M184I vs WT
Protocol: as §1, §2, §3

[5] = test system: HIV-1 RT mutant E138K/M184I; test: single round infection assay, E138K/M184I; assay type: cell-based; settings: E138K/M184I vs WT
Protocol: as §1, §2, §3

[6] = test system: HIV-1 RT mutant E138K/M184V; test: single round infection assay, E138K/M184V; assay type: cell-based; settings: for fold-change of IC50 of the mutant relative to WT: E138K/M184V vs WT; for IC50: ± SD, n=4
Protocol: as §1, §2, §3

HIV-1 RT mutant Y181I = test: single round infection assay, Y181I; assay type: cell-based; settings: for IC50: Human immunodeficiency virus 1; for fold-change of IC50 of the mutant relative to WT: Y181I vs WT
Protocol: as §1, §2, §3

WT HIV-1 [7] = settings: previous study; cited from earlier work
HIV-1 RT mutant L100I = test system: HIV-1 RT mutant L100I; set-up: method as in PMID 23217210; settings: previous study; cited from earlier work
HIV-1 RT mutant K103N = test system: HIV-1 RT mutant K103N; set-up: method as in PMID 23217210; settings: previous study; cited from earlier work
HIV-1 RT mutant Y181C = test system: HIV-1 RT mutant Y181C; set-up: method as in PMID 23217210; settings: previous study; cited from earlier work
HIV-1 RT mutant H221Y = test system: HIV-1 RT mutant H221Y; set-up: method as in PMID 23217210; settings: previous study; cited from earlier work
[8] = Human immunodeficiency virus 1, D67E
[9] = Human immunodeficiency virus 1, E138K/M184V

Structure (SMILES) | IC50 (WT HIV-1 [1]) | IC50 (HIV-1 RT mutant G190S) | fold-change of IC50 of the mutant relative to WT [2] | fold-change of IC50 of the mutant relative to WT [3] | fold-change of IC50 of the mutant relative to WT (HIV-1 RT mutant D67E) | IC50 (HIV-1 RT mutant D67E; D67E) | IC50 (HIV-1 RT mutant D67E; [8]) | fold-change of IC50 of the mutant relative to WT [4] | fold-change of IC50 of the mutant relative to WT [5] | fold-change of IC50 of the mutant relative to WT [6] | IC50 ([6]; E138K/M184V) | IC50 [6, 9] | IC50 (HIV-1 RT mutant Y181I) | fold-change of IC50 of the mutant relative to WT (HIV-1 RT mutant Y181I) | IC50 (WT HIV-1 [7]) | IC50 (HIV-1 RT mutant L100I) | IC50 (HIV-1 RT mutant K103N) | IC50 (HIV-1 RT mutant Y181C) | IC50 (HIV-1 RT mutant H221Y)
COc1ccc(Nc2nc(Nc3c(C)cc(/C=C/C#N)cc3C)nc3[nH]cnc23)cc1 [compound 16] | 0.17 ± 0.01 nM | 0.17 ± 0.05 nM | 11 | 4 | 16 | 2.7 ± 0.8 nM | < 2.5 nM | < 2 | 5 | 10 | 1.7 ± 0.35 nM | < 2.5 nM | 63.2 nM | 372 | < 7 nM | < 7 nM | < 7 nM | < 7 nM | < 7 nM
Cc1cc(/C=C/C#N)cc(C)c1Nc1ccnc(Nc2ccc(C#N)cc2)n1 [RPV, rilpivirine] | 0.24 ± 0.1 nM | 0.11 ± 0.01 nM | 10 | 3 | 3 | – | – | 3 | 5 | 5 | 1.3 ± 0.4 nM | < 2.5 nM | 8.8 nM | 37 | < 7 nM | < 7 nM | < 7 nM | < 7 nM | < 7 nM
Cc1cc(/C=C/C#N)cc(C)c1Nc1nc(Nc2ccc(C#N)cc2)c2nc[nH]c2n1 [compound 13] | 0.26 ± 0.04 nM | 0.12 nM | 2 | < 2 | 6 | 1.6 ± 0.4 nM | < 2.5 nM | < 2 | 3 | 4 | – | – | 1.2 nM | 5 | < 7 nM | < 7 nM | < 7 nM | < 7 nM | < 7 nM
